Results published in ChEMBL document CHEMBL1201862, “PubChem BioAssay data set” (2004).
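Following 48 hours of exposure in 96-well plates, responses at five concentrations were used to interpolate endpoints linearly. GI50 marks 50% less growth.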 Active and inactive are the calls of the source. Cut-off read from the data, not from the text of the source: active = GI50 up to about 1.1 µM and inactive = higher.

How the values were obtained:
Assay in all cases: NCI anticancer screen, dose series, 48 h
[1] = tested on: ACHN
[2] = tested on: EKVX
[3] = tested on: SW-620
[4] = tested on: NCI/ADR-RES
[5] = tested on: OVCAR-5
[6] = tested on: COLO 205
[7] = tested on: UACC-62
[8] = tested on: PC-3
[9] = tested on: 786-0
[10] = tested on: M14
[11] = tested on: HL-60
[12] = tested on: KM12
[13] = tested on: HOP-92
[14] = tested on: OVCAR-4
[15] = tested on: NCI-H460
[16] = tested on: OVCAR-3
[17] = tested on: RXF 393
[18] = tested on: SNB-19
[19] = tested on: SK-MEL-2
[20] = tested on: DU-145

| SMILES | GI50 [1] | GI50 [2] | GI50 [3] | GI50 [4] | GI50 [5] | GI50 [6] | GI50 [7] | GI50 [8] | GI50 [9] | GI50 [10] | GI50 [11] | GI50 [12] | GI50 [13] | GI50 [14] | GI50 [15] | GI50 [16] | GI50 [17] | GI50 [18] | GI50 [19] | GI50 [20] |
| --- | --- | --- | --- | --- | --- | --- | --- | --- | --- | --- | --- | --- | --- | --- | --- | --- | --- | --- | --- | --- |
| CC1=C2CC(C)(C)/C=C\C(=O)/C(C)=C\C3=C[C@H](C)C[C@]3(O2)C1=O | 1.03 µM (active) | 1.87 µM (inactive) | 0.41 µM (active) | 0.537 µM (active) | 1.32 µM (inactive) | 0.902 µM (active) | 1.05 µM (active) | 2.02 µM (inactive) | 0.516 µM (active) | 0.494 µM (active) | 0.139 µM (active) | 2.21 µM (inactive) | 1.09 µM (active) | 1.52 µM (inactive) | 4.71 µM (inactive) | 0.376 µM (active) | 0.597 µM (active) | 17.2 µM (inactive) | 2.4 µM (inactive) | 4.67 µM (inactive) |
| CCC(O)(Cc1ccc(OC)cc1)c1ccc(OC)cc1 (stereo not given) | > 100 µM (inactive) | > 100 µM (inactive) | > 100 µM (inactive) | > 100 µM (inactive) | > 100 µM (inactive) | > 100 µM (inactive) | > 100 µM (inactive) | > 100 µM (inactive) | > 100 µM (inactive) | > 100 µM (inactive) | > 100 µM (inactive) | > 100 µM (inactive) | > 100 µM (inactive) | 84.7 µM (inactive) | > 100 µM (inactive) | > 100 µM (inactive) | > 100 µM (inactive) | > 100 µM (inactive) | > 100 µM (inactive) | > 100 µM (inactive) |
| CCOC(CBr)OC1C(=O)OCC1(C)C (stereo not given) | > 100 µM (inactive) | > 100 µM (inactive) | > 100 µM (inactive) | > 100 µM (inactive) | > 100 µM (inactive) | > 100 µM (inactive) | > 100 µM (inactive) | > 100 µM (inactive) | > 100 µM (inactive) | > 100 µM (inactive) | > 100 µM (inactive) | > 100 µM (inactive) | > 100 µM (inactive) | > 100 µM (inactive) | > 100 µM (inactive) | – | > 100 µM (inactive) | > 100 µM (inactive) | > 100 µM (inactive) | > 100 µM (inactive) |
| C[C@@H]1[C@@H](c2ccccc2)O[B-](c2ccccc2)(c2ccccc2)N1C | 33.1 µM (inactive) | 97.7 µM (inactive) | 50.8 µM (inactive) | 54.5 µM (inactive) | 74.3 µM (inactive) | 22.3 µM (inactive) | 41 µM (inactive) | 17.5 µM (inactive) | 65.8 µM (inactive) | 28.4 µM (inactive) | 15.3 µM (inactive) | 52.1 µM (inactive) | 27.8 µM (inactive) | 72.1 µM (inactive) | 45.2 µM (inactive) | 35.9 µM (inactive) | 37.5 µM (inactive) | > 100 µM (inactive) | 49.5 µM (inactive) | 63.1 µM (inactive) |
| C/N=C/N(C)c1c2ccccc2nc2ccccc12 | > 100 µM (inactive) | > 100 µM (inactive) | > 100 µM (inactive) | > 100 µM (inactive) | > 100 µM (inactive) | > 100 µM (inactive) | > 100 µM (inactive) | > 100 µM (inactive) | > 100 µM (inactive) | > 100 µM (inactive) | > 100 µM (inactive) | > 100 µM (inactive) | 64.7 µM (inactive) | > 100 µM (inactive) | > 100 µM (inactive) | > 100 µM (inactive) | > 100 µM (inactive) | > 100 µM (inactive) | > 100 µM (inactive) | > 100 µM (inactive) |
| CCc1c[n+]2c(cc1C1=CN3c4ccccc4[C@]45CCN6C/C(=C/CO)[C@H](C[C@H]64)[C@@H]([C@@H]1O)[C@H]35)-c1[nH]c3ccccc3c1CC2 | > 50 µM (inactive) | > 50 µM (inactive) | > 50 µM (inactive) | > 50 µM (inactive) | > 50 µM (inactive) | > 50 µM (inactive) | > 50 µM (inactive) | > 50 µM (inactive) | > 50 µM (inactive) | > 50 µM (inactive) | > 50 µM (inactive) | > 50 µM (inactive) | > 50 µM (inactive) | > 50 µM (inactive) | > 50 µM (inactive) | > 50 µM (inactive) | > 50 µM (inactive) | > 50 µM (inactive) | > 50 µM (inactive) | > 50 µM (inactive) |
| C=CCC1C(=O)Nc2cccc3ncn(c23)C1=O (stereo not given) | > 100 µM (inactive) | > 100 µM (inactive) | > 100 µM (inactive) | > 100 µM (inactive) | > 100 µM (inactive) | > 100 µM (inactive) | > 100 µM (inactive) | > 100 µM (inactive) | > 100 µM (inactive) | > 100 µM (inactive) | > 100 µM (inactive) | 48.9 µM (inactive) | > 100 µM (inactive) | > 100 µM (inactive) | > 100 µM (inactive) | > 100 µM (inactive) | > 100 µM (inactive) | > 100 µM (inactive) | > 100 µM (inactive) | > 100 µM (inactive) |
| C=Cc1cc(OC)c2c(c1)c(=O)oc1c2cc(OC)c2c(O)ccc(C3OC(C)C(O)C(C)(O)C3O)c21 (stereo not given) | 0.000409 µM (active) | 0.0398 µM (active) | 0.0225 µM (active) | 0.0344 µM (active) | 0.0397 µM (active) | – | 0.0317 µM (active) | 0.000638 µM (active) | 0.000348 µM (active) | 0.000382 µM (active) | 0.0225 µM (active) | – | 0.041 µM (active) | 0.0271 µM (active) | 0.0225 µM (active) | 0.0548 µM (active) | 0.0225 µM (active) | 0.0372 µM (active) | 0.0294 µM (active) | 0.000296 µM (active) |
| CNC(=O)c1ccccc1-[s+]1c2ccccc2c(=O)n1C (stereo not given) | > 100 µM (inactive) | > 100 µM (inactive) | > 100 µM (inactive) | > 100 µM (inactive) | > 100 µM (inactive) | > 100 µM (inactive) | > 100 µM (inactive) | > 100 µM (inactive) | > 100 µM (inactive) | > 100 µM (inactive) | > 100 µM (inactive) | > 100 µM (inactive) | > 100 µM (inactive) | > 100 µM (inactive) | – | > 100 µM (inactive) | > 100 µM (inactive) | > 100 µM (inactive) | > 100 µM (inactive) | > 100 µM (inactive) |
| Cc1ccc2nc(-c3ccc(N)c(Br)c3)sc2c1 | 36.3 µM (inactive) | 15.2 µM (inactive) | – | 52.1 µM (inactive) | 47.3 µM (inactive) | 55.8 µM (inactive) | 23.8 µM (inactive) | 22.2 µM (inactive) | 29.1 µM (inactive) | 26.7 µM (inactive) | 17.4 µM (inactive) | 7.41 µM (inactive) | 19.7 µM (inactive) | 33.5 µM (inactive) | 5.6 µM (inactive) | 10.1 µM (inactive) | 18.2 µM (inactive) | 81.8 µM (inactive) | 27.9 µM (inactive) | 31.5 µM (inactive) |
